Numbers after ± are expanded uncertainties.
What was measured:
[1] = refractive index (Na D-line) (dimensionless); settings: 293.15 K; 101.33 kPa; Liquid; Standard Abbe refractometry
[2] = Liquid

refractive index [1]: 1.4603 ± 0.0032
mass density ([2]; 293.15 K, 101.33 kPa): 848.5 ± 44 kg/m3
vapor or sublimation pressure ([2]; 480.05 K, Distillation): 2 kPa
Compound: CCCCCCCC/C=C\CCCCCCCCO [(Z)-9-octadecen-1-ol]

Reference: the NIST ThermoML archive (doi:10.1016/j.jct.2006.03.017)
